Columns and labels:
[1] = system: TGF-β-stimulated SMAD3 phosphorylation in BEAS-2B cells; assay: Cellular ALK5 potency assay, inhibition of TGF-β stimulated pSMAD3 formation in BEAS-2B cells; assay type: cell-based; conditions: Homo sapiens, inhibition of TGF-β (10 ng/mL) stimulated pSMAD3 formation, 1 hour compound incubation, read-out: BEAS2B pIC50 (converted)
How it was run: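 Phospho-SMAD3 was quantified by AlphaLISA in lysates of human lung epithelial BEAS-2B cells. Compound was added 1 h (37 °C, HEPES/BSA-supplemented HBSS) before a 30 min challenge with 10 ng/mL TGF-β. Values are pIC50 relative to stimulated cells without compound.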

[2] = biological target: T1, recombinant human ALK5 (TGF-βR1) protein (Homo sapiens, UniProt P36897); assay: Biochemical ALK5 (TGF-βR1) assay to measure pKi (LANCE Ultra ULight kinase assay); conditions: apparent pKi, converted from pIC50 using the Cheng-Prusoff equation
T1 construct: purchased Life Technologies PR9075A
T1 sequence (P36897 34-503): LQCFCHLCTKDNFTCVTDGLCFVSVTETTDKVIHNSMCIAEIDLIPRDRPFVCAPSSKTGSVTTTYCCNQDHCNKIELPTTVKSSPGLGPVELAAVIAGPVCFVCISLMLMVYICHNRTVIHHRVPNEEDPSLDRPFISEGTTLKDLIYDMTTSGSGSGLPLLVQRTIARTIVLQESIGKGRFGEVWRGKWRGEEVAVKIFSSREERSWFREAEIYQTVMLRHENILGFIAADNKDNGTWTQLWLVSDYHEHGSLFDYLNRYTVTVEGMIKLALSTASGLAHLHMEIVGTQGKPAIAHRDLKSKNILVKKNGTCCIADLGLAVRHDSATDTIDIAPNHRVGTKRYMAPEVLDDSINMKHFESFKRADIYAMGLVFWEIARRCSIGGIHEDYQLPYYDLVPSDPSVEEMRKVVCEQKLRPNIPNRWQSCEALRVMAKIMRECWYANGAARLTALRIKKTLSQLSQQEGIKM
How it was run: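 TR-FRET kinase format: compound dose range 10 μM–25 pM equilibrated 60 min with human ALK5 and ULight-labelled topoisomerase 2α peptide in HEPES/MgCl2 buffer pH 7.5 with DTT. Reaction started with ATP (125 μM stock, 5× final), 60 min at 37° C, stopped with EDTA/Eu-anti-phospho antibody; pKi derived from pIC50 via Cheng-Prusoff.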

Row | SMILES | Ki [2] | IC50 [1]
1 | Fc1cc(F)c(-c2n[nH]cc2-c2ccc3ncc(NC4CCNCC4)cc3n2)cc1Cl [Compound 6-10, 6-[3-(5-chloro-2,4-difluoro-phenyl)-1H-pyrazol-4-yl]-N-(4-piperidyl)-1,5-naphthyridin-3-amine] | 0.0398 to 0.316 nM | 200 to 1260 nM
2 | Fc1cc(F)c(-c2n[nH]cc2-c2ccc3ncc(NC[C@H]4CCCCN4)cc3n2)cc1Cl [Compound 6-11, 6-[3-(5-chloro-2,4-difluoro-phenyl)-1H-pyrazol-4-yl]-N-[[(2R)-2-piperidyl]methyl]-1,5-naphthyridin-3-amine] | 0.398 to 3.16 nM | 25.1 to 158 nM
3 | Fc1cc(F)c(-c2n[nH]cc2-c2ccc3ncc(NC[C@@H]4CCCCN4)cc3n2)cc1Cl [Compound 6-12, 6-[3-(5-chloro-2,4-difluoro-phenyl)-1H-pyrazol-4-yl]-N-[[(2S)-2-piperidyl]methyl]-1,5-naphthyridin-3-amine] | 0.398 to 3.16 nM | 25.1 to 158 nM
4 | CC(C)(C)N1CCN(CCNc2cnc3ccc(-c4c[nH]nc4-c4cc(Cl)c(F)cc4F)nc3c2)CC1 [Compound 6-13, N-(2-(4-(tert-butyl)piperazin-1-yl)ethyl)-6-(3-(5-chloro-2,4-difluorophenyl)-1H-pyrazol-4-yl)-1,5-naphthyridin-3-amine] | 0.0398 to 0.316 nM | 25.1 to 158 nM
5 | Fc1cc(F)c(-c2n[nH]cc2-c2ccc3ncc(N4CC(N5CCCCC5)C4)cc3n2)cc1Cl [Compound 6-14, 2-(3-(5-chloro-2,4-difluorophenyl)-1H-pyrazol-4-yl)-7-(3-(piperidin-1-yl)azetidin-1-yl)-1,5-naphthyridine] | 0.0398 to 0.316 nM | 25.1 to 158 nM
6 | CCN1CCC(N(C)c2cnc3ccc(-c4c[nH]nc4-c4cc(Cl)c(F)cc4F)nc3c2)CC1 [Compound 6-15, 6-[3-(5-chloro-2,4-difluoro-phenyl)-1H-pyrazol-4-yl]-N-(1-ethyl-4-piperidyl)-N-methyl-1,5-naphthyridin-3-amine] | 0.398 to 3.16 nM | 25.1 to 158 nM
7 | CN1CCC(N(C)c2cnc3ccc(-c4c[nH]nc4-c4cc(Cl)c(F)cc4F)nc3c2)CC1 [Compound 6-16, 6-[3-(5-chloro-2,4-difluoro-phenyl)-1H-pyrazol-4-yl]-N-methyl-N-(1-methyl-4-piperidyl)-1,5-naphthyridin-3-amine] | 0.398 to 3.16 nM | 25.1 to 158 nM
8 | CN1CCN(C2CCN(c3cnc4ccc(-c5c[nH]nc5-c5cc(Cl)c(F)cc5F)nc4c3)CC2)CC1 [Compound 6-17, 2-[3-(5-chloro-2,4-difluoro-phenyl)-1H-pyrazol-4-yl]-7-[4-(4-methylpiperazin-1-yl)-1-piperidyl]-1,5-naphthyridine] | 0.0398 to 0.316 nM | 25.1 to 158 nM
9 | CN(C)C1CCN(c2cnc3ccc(-c4c[nH]nc4-c4cc(Cl)c(F)cc4F)nc3c2)CC1 [Compound 6-18, 1-[6-[3-(5-chloro-2,4-difluoro-phenyl)-1H-pyrazol-4-yl]-1,5-naphthyridin-3-yl]-N,N-dimethyl-piperidin-4-amine] | 0.0398 to 0.316 nM | 25.1 to 158 nM
10 | CN(C)C1(C)CN(c2cnc3ccc(-c4c[nH]nc4-c4cc(Cl)c(F)cc4F)nc3c2)C1 [Compound 6-20, 1-[6-[3-(5-chloro-2,4-difluoro-phenyl)-1H-pyrazol-4-yl]-1,5-naphthyridin-3-yl]-N,N,3-trimethyl-azetidin-3-amine] | 0.398 to 3.16 nM | 25.1 to 158 nM
11 | CNC1CCN(c2cnc3ccc(-c4c[nH]nc4-c4cc(Cl)c(F)cc4F)nc3c2)CC1 [Compound 6-23, 1-(6-(3-(5-chloro-2,4-difluorophenyl)-1H-pyrazol-4-yl)-1,5-naphthyridin-3-yl)-N-methylpiperidin-4-amine] | 0.0398 to 0.316 nM | 25.1 to 158 nM
12 | CNC(=O)[C@@H]1CN(c2cnc3ccc(-c4c[nH]nc4-c4cc(Cl)c(F)cc4F)nc3c2)CCN1 [Compound 6-26, (2S)-4-[6-[3-(5-chloro-2,4-difluoro-phenyl)-1H-pyrazol-4-yl]-1,5-naphthyridin-3-yl]-N-methyl-piperazine-2-carboxamide] | 0.398 to 3.16 nM | 25.1 to 158 nM
13 | COC(=O)[C@H]1CN(c2cnc3ccc(-c4c[nH]nc4-c4cc(Cl)c(F)cc4F)nc3c2)CCN1 [Compound 6-27, methyl (2R)-4-[6-[3-(5-chloro-2,4-difluoro-phenyl)-1H-pyrazol-4-yl]-1,5-naphthyridin-3-yl]piperazine-2-carboxylate] | 0.398 to 3.16 nM | 25.1 to 158 nM
14 | COC(=O)[C@@H]1CN(c2cnc3ccc(-c4c[nH]nc4-c4cc(Cl)c(F)cc4F)nc3c2)CCN1 [Compound 6-28, methyl (2S)-4-[6-[3-(5-chloro-2,4-difluoro-phenyl)-1H-pyrazol-4-yl]-1,5-naphthyridin-3-yl]piperazine-2-carboxylate] | 0.398 to 3.16 nM | 25.1 to 158 nM
15 | NC1CCN(c2cnc3ccc(-c4c[nH]nc4-c4cc(Cl)c(F)cc4F)nc3c2)C1 (stereo not shown) [Compound 6-34, 1-[6-[3-(5-chloro-2,4-difluoro-phenyl)-1H-pyrazol-4-yl]-1,5-naphthyridin-3-yl]pyrrolidin-3-amine] | ≤ 0.0316 nM | ≤ 20 nM
16 | CNC1CCN(c2cnc3ccc(-c4c[nH]nc4-c4cc(Cl)c(F)cc4F)nc3c2)C1 (stereo not shown) [Compound 6-35, 1-[6-[3-(5-chloro-2,4-difluoro-phenyl)-1H-pyrazol-4-yl]-1,5-naphthyridin-3-yl]-N-methyl-pyrrolidin-3-amine] | ≤ 0.0316 nM | ≤ 20 nM
17 | NCCN1CCN(c2cnc3ccc(-c4c[nH]nc4-c4cc(Cl)c(F)cc4F)nc3c2)CC1 [Compound 6-36, 2-[4-[6-[3-(5-chloro-2,4-difluoro-phenyl)-1H-pyrazol-4-yl]-1,5-naphthyridin-3-yl]piperazin-1-yl]ethanamine] | 0.0398 to 0.316 nM | 25.1 to 158 nM
18 | CNC(=O)[C@H]1CN(c2cnc3ccc(-c4c[nH]nc4-c4cc(Cl)c(F)cc4F)nc3c2)CCN1C(C)C [Compound 6-38, (2R)-4-[6-[3-(5-chloro-2,4-difluoro-phenyl)-1H-pyrazol-4-yl]-1,5-naphthyridin-3-yl]-1-isopropyl-N-methyl-piperazine-2-carboxamide] | 0.0398 to 0.316 nM | 25.1 to 158 nM

The next lines start with results.

Row | Ki [2] | SMILES | IC50 [1]
19 | 0.0398 to 0.316 nM | CN(C)C1CN(c2cnc3ccc(-c4c[nH]nc4-c4cc(Cl)c(F)cc4F)nc3c2)C1 [Compound 6-19, 1-[6-[3-(5-chloro-2,4-difluoro-phenyl)-1H-pyrazol-4-yl]-1,5-naphthyridin-3-yl]-N,N-dimethyl-azetidin-3-amine] | 25.1 to 158 nM
20 | 0.398 to 3.16 nM | CN(CCN1CCNCC1)c1cnc2ccc(-c3c[nH]nc3-c3cc(Cl)c(F)cc3F)nc2c1 [Compound 6-24, 6-[3-(5-chloro-2,4-difluoro-phenyl)-1H-pyrazol-4-yl]-N-methyl-N-(2-piperazin-1-ylethyl)-1,5-naphthyridin-3-amine] | 25.1 to 158 nM
21 | ≤ 0.0316 nM | CNCC1CN(c2cnc3ccc(-c4c[nH]nc4-c4cc(Cl)c(F)cc4F)nc3c2)C1 [Compound 6-29, 1-[1-[6-[3-(5-chloro-2,4-difluoro-phenyl)-1H-pyrazol-4-yl]-1,5-naphthyridin-3-yl]azetidin-3-yl]-N-methyl-methanamine] | ≤ 20 nM
22 | 0.0398 to 0.316 nM | NC1CN(c2cnc3ccc(-c4c[nH]nc4-c4cc(Cl)c(F)cc4F)nc3c2)C1 [Compound 6-30, 1-[6-[3-(5-chloro-2,4-difluoro-phenyl)-1H-pyrazol-4-yl]-1,5-naphthyridin-3-yl]azetidin-3-amine] | 25.1 to 158 nM
23 | 0.0398 to 0.316 nM | CNC1CN(c2cnc3ccc(-c4c[nH]nc4-c4cc(Cl)c(F)cc4F)nc3c2)C1 [Compound 6-31, 1-[6-[3-(5-chloro-2,4-difluoro-phenyl)-1H-pyrazol-4-yl]-1,5-naphthyridin-3-yl]-N-methyl-azetidin-3-amine] | ≤ 20 nM
24 | 0.0398 to 0.316 nM | CN(CC1CNC1)c1cnc2ccc(-c3c[nH]nc3-c3cc(Cl)c(F)cc3F)nc2c1 [Compound 6-32, N-(azetidin-3-ylmethyl)-6-[3-(5-chloro-2,4-difluoro-phenyl)-1H-pyrazol-4-yl]-N-methyl-1,5-naphthyridin-3-amine] | 25.1 to 158 nM
25 | 0.398 to 3.16 nM | Fc1cc(F)c(-c2n[nH]cc2-c2ccc3ncc(N4CC5CNC5C4)cc3n2)cc1Cl (stereo not shown) [Compound 6-33, 2-[3-(5-chloro-2,4-difluoro-phenyl)-1H-pyrazol-4-yl]-7-(3,6-diazabicyclo[3.2.0]heptan-3-yl)-1,5-naphthyridine] | 25.1 to 158 nM
26 | 0.0398 to 0.316 nM | CC(C)N1CC[C@@H](N(C)c2cnc3ccc(-c4c[nH]nc4-c4cc(Cl)c(F)cc4F)nc3c2)C1 [Compound 6-37, (R)-6-(3-(5-chloro-2,4-difluorophenyl)-1H-pyrazol-4-yl)-N-(1-isopropylpyrrolidin-3-yl)-N-methyl-1,5-naphthyridin-3-amine] | 25.1 to 158 nM

— US11730720B2, “ALK5 inhibitors” (THERAVANCE BIOPHARMA R&D IP, LLC, priority 2018, dated 2023)
